Each structure is given as a SMILES string. Where only a bound is given, the exact number is not on record here.

This test is described as follows: In vitro inhibitory activity towards Coagulation factor X was determined using chromogenic substrate, MeO-COD-CHG-Gly-Arg-pNA.
`N=C(N)c1ccc(O)cc1` returned a Ki of 30 µM.
The value for `N=C(N)c1ccc(CO)cc1` was 55 µM; that for `CS(=O)(=O)CCc1ccc(C(=N)N)cc1` was 193 µM.
The value for `CN(C)c1ccc(P(C)(=O)O)cc1` was 4100 µM.
The value for `N=C(N)c1ccccc1` [BENZAMIDINE] was 349 µM; that for `N=C(N)c1ccc(CCN)cc1` was 750 µM; that for `N=C(N)c1ccc(CCO)cc1` was 607 µM.
Consider `CS(=O)(=O)Cc1ccc(C(=N)N)cc1`, for which the inhibition constant Ki is above 5000 µM.
The value for `N=C(N)c1ccc(N)cc1` was 197 µM.
The value for `CP(=O)(O)c1ccc2c(N)nccc2c1` was above 5000 µM; that for `CS(=O)(=O)c1ccc(C(=N)N)cc1` was 1800 µM; that for `N=C(N)c1ccc(CN)cc1` was 429 µM.

(Values after ChEMBL document CHEMBL1137904, “Design, synthesis, and evaluation of oxyanion-hole selective inhibitor substituents for the S1 subsite of factor Xa” (Bioorg Med Chem Lett, 2004).)
